# Article PMC8968852, “A New Spectral Shift-Based Method to Characterize Molecular Interactions” (Assay and Drug Development Technologies, 2022)
# Where two headings read alike, the source gives them in different places.
# Tests used:
# [1] = molecular target: T1, Carbonic Anhydrase II from bovine erythrocytes (bCA-II) (Bos taurus, UniProt P00921); test: biochemical; type: binding
# T1 construct: Carbonic Anhydrase II from bovine erythrocytes; purchased Sigma Aldrich C2522; host or cells: bovine erythrocytes
# T1 sequence (P00921 whole entry): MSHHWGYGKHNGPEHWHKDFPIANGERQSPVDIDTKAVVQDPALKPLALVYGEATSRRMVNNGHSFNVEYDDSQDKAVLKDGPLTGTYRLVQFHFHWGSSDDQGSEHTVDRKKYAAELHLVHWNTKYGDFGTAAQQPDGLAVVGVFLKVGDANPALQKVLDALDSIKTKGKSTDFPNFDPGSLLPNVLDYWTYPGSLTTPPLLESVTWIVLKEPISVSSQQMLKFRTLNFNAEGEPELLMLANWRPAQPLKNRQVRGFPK
# bCA-II [2] = conditions: literature SPR; cited from earlier work
# bCA-II [3] = conditions: literature ITC; cited from earlier work
# GLUT1 = conditions: reported IC50 from cellular assays; cited from earlier work
# [4] = test system: Cy5-labeled 13-mer (5′ Cy5 TTT GGA CTT CAG G 3′); test: Spectral shift DNA hybridization and van't Hoff analysis; type: binding
# Experimental: Chemically synthesized DNA oligonucleotides were obtained from Metabion GmbH (Planegg, Germany). A Cy5-labeled 13-mer including a short poly-T spacer in front of a 10 base-long recognition sequence (sequence 5′ Cy5 TTT GGA CTT CAG G 3′) was designed as target and a complementary 10-mer (sequence 3′ CCT GAA GTC C 5′) as ligand. All other chemicals and reagents used in this study were of the highest available analytic grade.
# All dual-emission spectral shift measurements in this work were performed in coated capillaries (cat# MO-K025; NanoTemper Technologies GmbH) using the Monolith X instrument equipped with dual-emission detection optics (NanoTemper Technologies GmbH). The required volume per data point was 10 μL. Environment-sensitive near-infrared dyes with an emission maximum at around 660 nm (e.g., RED 2nd Generation dyes, NanoTemper Technologies GmbH, or Cy5) were used as fluorescent reporters. For each ratiometric reading, the fluorescence was recorded simultaneously at 650 and 670 nm for 5 s (Table 1).
# Lyophilized DNA oligonucleotides were resuspended in ddH2O to a concentration of 100 μM. Assay buffer (20 mM sodium phosphate buffer, pH 7.2, 100 mM NaCl, 0.05% TWEEN® 20) was prepared as twofold stock. Cy5-labeled 13-mer was further diluted in twofold assay buffer. Serial dilution of 10-mer was performed in ddH2O. The highest final concentration of 10-mer in the 16-point dilution series was 2 μM and the final concentration of Cy5-labeled 13-mer was 2.5 nM with 20 μL in each sample. For ratiometric fluorescence analysis, the device was adjusted to the desired temperature and samples were incubated for 5 min before starting the measurement. Measurements were performed at 23°C to 37°C in 2°C increments and then repeated in reverse order. Capillaries were sealed with Capillary Sealing Paste (cat# PR-P001; NanoTemper Technologies GmbH) to prevent evaporation.
# Ratios of the fluorescence intensities at 670 and 650 nm were calculated automatically within the MO.Control software (NanoTemper Technologies GmbH). For Kd determination, dose–response curves were fitted with a binding model that describes a molecular interaction with a 1:1 stoichiometry according to the law of mass action. In this model, the fraction bound f(cligand) at a given ligand concentration cligand in equilibrium is given as (1) fcligand=cligand+ctarget+Kd−cligand+ctarget+Kd^2−4⋅cligand⋅ctarget/2ctarget
# Van't Hoff plots were prepared by plotting the logarithm of the dissociation constant, ln Kd, over the inverse temperature, 1/T. A linear regression was then used to calculate thermodynamic parameters according to (5) ΔH=R⋅slope
# [5] = van't Hoff analysis, 23°C to 37°C
compound,measurement,setting,value
"NS(=O)(=O)c1ccccc1 [Benzenesulfonamide, benzenesulfonamide]",Kd,[1],502 ± 67 nM
same,670 nm/650 nm ratio of labeled bCA-II upon inhibitor binding,"[1]; final value, without bound inhibitor 0.884",0.890
same,Kd,bCA-II [2],848 nM
same,Kd,bCA-II [3],839 nM
"3′ CCT GAA GTC C 5′ (DNA CCTGAAGTCC; chemistry not fully specified; listed 3' to 5') [10-mer, chemically synthesized DNA 10-mer complementary to the Cy5-labeled 13-mer target]",Kd,[4]; 23 °C,1.77 ± 0.06 nM
same,Kd,[4]; 25 °C,3.35 ± 0.11 nM
same,Kd,[4]; 27 °C,6.52 ± 0.17 nM
same,Kd,[4]; 29 °C,12.8 ± 0.3 nM
same,Kd,[4]; 31 °C,25.4 ± 0.4 nM
same,Kd,[4]; 33 °C,50.4 ± 0.7 nM
same,Kd,[4]; 35 °C,102 ± 2 nM
same,Kd,[4]; 37 °C,198 ± 4 nM
same,entropy ΔS,[4]; [5],−168.5 cal/mol/K
same,van't Hoff enthalpy ΔH,[4]; [5],-61.8 kcal/mol
